From patent US8552145B2, “Vaccine for modulating between T1 and T2 immune responses” (priority 2001, dated 2013)
No end group written: not given here.

Experiments:
[1] = system: BP1-151HSA conjugate (MUC1 24 amino acid peptide conjugated to HSA); assay: Anti-MUC1 IgG levels (serum ELISA) in MUC1 transgenic mice, BP1-151 HSA solid phase; assay type: in vivo, C57Bl/6 MUC1 transgenic mice; settings: Protocol 1347C, 4 immunizations, individual mouse
From the text: To further characterize the observed phenomenon, MUC I transgenic mice were immunized with MUC I based liposomal formulations containing mono- or dilipopeptides.

[2] = system: BP1-151HSA conjugate (MUC1 24 amino acid peptide conjugated to HSA); assay: Anti-MUC1 antibody levels (serum ELISA) after immunization, BP1-151-HSA solid phase; assay type: in vivo, C57BL/6 mice; settings: for antibody levels / humoral immunity (in words): immunized mice, liposomal formulations containing lipid A adjuvant
Protocol: (§1) MUC1 based liposomal vaccines (“BLP25 liposomal vaccines”) at a dose of 100 μg (250 μl) was injected subcutaneously, two, three, or four times, at biweekly intervals, into right and left inguinal regions (125 μl per each site).

[3] = system: Blend C (natural human MUC1 mucin purified from ovarian cancer ascites); assay: Anti-MUC1 antibody levels (serum ELISA) after immunization, Blend C solid phase; assay type: in vivo; settings: Protocol 1346; C57Bl/6 mice immunized two times, subcutaneously; individual mouse
Sequence of Blend C (natural human MUC1 mucin purified from ovarian cancer ascites) (P15941 24-1255): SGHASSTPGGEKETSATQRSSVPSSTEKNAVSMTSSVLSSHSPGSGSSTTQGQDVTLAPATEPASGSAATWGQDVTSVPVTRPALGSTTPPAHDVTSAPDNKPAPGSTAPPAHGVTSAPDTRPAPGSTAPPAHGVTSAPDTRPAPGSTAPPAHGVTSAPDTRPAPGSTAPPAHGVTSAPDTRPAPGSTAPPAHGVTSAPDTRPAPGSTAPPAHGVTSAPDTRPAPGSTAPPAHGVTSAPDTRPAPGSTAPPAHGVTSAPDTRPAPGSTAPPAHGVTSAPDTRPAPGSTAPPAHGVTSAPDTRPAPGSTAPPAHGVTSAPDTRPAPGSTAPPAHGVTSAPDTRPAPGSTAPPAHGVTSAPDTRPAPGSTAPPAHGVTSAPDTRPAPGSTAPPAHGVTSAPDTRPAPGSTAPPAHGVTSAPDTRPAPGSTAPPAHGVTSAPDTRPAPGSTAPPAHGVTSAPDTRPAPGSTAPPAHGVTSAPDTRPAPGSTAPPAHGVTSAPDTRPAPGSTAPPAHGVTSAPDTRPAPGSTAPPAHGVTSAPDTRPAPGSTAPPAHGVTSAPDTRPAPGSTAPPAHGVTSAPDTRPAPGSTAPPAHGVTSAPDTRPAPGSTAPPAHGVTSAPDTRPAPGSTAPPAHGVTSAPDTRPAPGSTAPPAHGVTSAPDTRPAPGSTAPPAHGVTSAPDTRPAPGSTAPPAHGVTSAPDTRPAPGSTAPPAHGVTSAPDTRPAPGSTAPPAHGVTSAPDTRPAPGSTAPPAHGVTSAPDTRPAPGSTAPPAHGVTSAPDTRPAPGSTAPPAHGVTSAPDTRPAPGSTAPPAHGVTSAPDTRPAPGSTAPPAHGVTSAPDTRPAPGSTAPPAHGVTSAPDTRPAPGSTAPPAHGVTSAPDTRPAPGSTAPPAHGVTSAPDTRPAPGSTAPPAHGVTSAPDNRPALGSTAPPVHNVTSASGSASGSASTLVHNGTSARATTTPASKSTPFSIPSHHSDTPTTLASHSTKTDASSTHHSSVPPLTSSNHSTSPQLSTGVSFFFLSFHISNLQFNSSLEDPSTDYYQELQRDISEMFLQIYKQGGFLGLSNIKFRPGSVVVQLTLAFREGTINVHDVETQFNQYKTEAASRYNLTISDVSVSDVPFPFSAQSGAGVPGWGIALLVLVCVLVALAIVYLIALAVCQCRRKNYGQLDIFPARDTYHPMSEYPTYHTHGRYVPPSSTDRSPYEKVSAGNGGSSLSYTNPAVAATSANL
Protocol: as §1

Row | Substance | Antibody Titer, IgG, BP1-151 HSA [1] | Antibody Titer, IgG, BP1-151-HSA ([2]; Protocol 1346, C57Bl/6 mice immunized two times, subcutaneously, individual mouse) | antibody levels / humoral immunity (in words) [2] | Antibody Titer, IgG, Blend C [3]
1 | GVTSAPDTRPAPGSTAS(myristyl)L [BP1-228] | very low titers of IgG | only low titers | very low or no antibody levels | no antibodies were detected
2 | GVTSAPDTRPAPGSTAS(myristyl)S(myristyl)L [BP1-217] | strong IgG antibody response |  |  | 
3 | TAPPAHGVTSAPDTRPAPGSTAPPK(palmitate)K(palmitate)G [BP1-132A] |  |  | induce humoral immunity | 
